# Numbers after ± are expanded uncertainties.
# Details: Liquid, Ebulliometric method (Recirculating still)
compound,measurement,setting,value
CC(=O)OC(C)C [1-methylethyl ethanoate],vapor or sublimation pressure,361.45 K,101.3 ± 0.8 kPa
C[S+](C)[O-] [dimethyl sulfoxide],vapor or sublimation pressure,463.38 K,101.3 ± 0.8 kPa
CC(C)O [propan-2-ol],vapor or sublimation pressure,355.33 K,101.3 ± 0.8 kPa
